# Measurements as given in ChEMBL document CHEMBL6078640, “Trivalent oleanolic acid-glucose conjugates: Synthesis and efficacy against Influenza A virus” (Eur J Med Chem, 2024).
# pIC50: −log10 of the molar value. Calls of active or inactive are those of the source. No cut-off for these calls is given here.
# Assays:
# Influenza A virus [1] = test: Antiviral activity against Influenza A virus H1N1 infected in MDCK cells assessed as reduction in cytopathic effect at 100 uM pretreated with cells followed by viral infection and measured after 40 hrs by fluorescence based microplate reader analysis; format: functional, organism-based
# MDCK [2] = test: Cytotoxicity against dog MDCK cells assessed as reduction in cell viability at 100 uM incubated for 40 hrs by celltiter-glo assay; format: toxicity, cell-based, Canis lupus familiaris
# Influenza A virus [3] = test: Antiviral activity against Influenza A virus H1N1 infected in MDCK cells assessed as inhibition of viral growth at 100 uM relative to control; format: functional
# Influenza A virus [4] = test: Antiviral activity against influenza A virus A/WSN/33(H1N1) infected in MDCK cells assessed as inhibition of viral-induced cytopathic effect pretreated with cells followed by viral infection and measured after 40 hrs by fluorescence based microplate reader analysis; format: functional, organism-based
# [5] = Cytotoxicity against dog MDCK cells assessed as reduction in cell viability incubated for 40 hrs by celltiter-glo assay; format: toxicity, cell-based, Canis lupus familiaris
# [6] = Selectivity index, ratio of CC50 for dog MDCK cells to IC50 for influenza A virus A/WSN/33(H1N1) infected in MDCK cells; format: toxicity, cell-based; details: read-out: Selectivity Index
# Influenza A virus [7] = test: Antiviral activity against Influenza A virus H1N1 (A/Guangdong maonan/6WL197/2020); format: functional, organism-based
# Influenza B virus = test: Antiviral activity against Influenza B virus […] (B/Darwin/58/2019/Yamagata); format: functional, organism-based
# Influenza A virus [8] = test: Antiviral activity against Influenza A virus H5N1 (A/Indonesia/5/2005 (IBCDC-RG2)); format: functional, organism-based
# Influenza A virus [9] = test: Antiviral activity against influenza A virus A/WSN/33 (H1N1) in MDCK cells assessed as reduction in M2 expression preincubated with cells at 24 hrs followed by compound addition and measured at 0 to 2 hrs post infection by time of addition assay; format: functional, organism-based; details: time 0-2 hrs
# Influenza A virus [10] = test: Antiviral activity against influenza A virus A/WSN/33 (H1N1) in MDCK cells assessed as reduction in NP expression preincubated with cells at 24 hrs followed by compound addition and measured at 0 to 2 hrs post infection by time of addition assay; format: functional, organism-based; details: time 0-2 hrs
# Influenza A virus [11] = test: Antiviral activity against influenza A virus A/WSN/33 (H1N1) in MDCK cells assessed as reduction in M2 expression preincubated with cells at 24 hrs followed by compound addition and measured at 0 to 10 hrs post infection by time of addition assay; format: functional, organism-based; details: time 0-10 hrs
# Influenza A virus [12] = test: Antiviral activity against influenza A virus A/WSN/33 (H1N1) in MDCK cells assessed as reduction in NP expression preincubated with cells at 24 hrs followed by compound addition and measured at 0 to 10 hrs post infection by time of addition assay; format: functional, organism-based; details: time 0-10 hrs
# Influenza A virus [13] = test: Antiviral activity against influenza A virus A/WSN/33 (H1N1) in MDCK cells assessed as reduction in NP mRNA level preincubated with cells at 24 hrs followed by compound addition and measured at 0 to 2 hrs post infection by RT-qPCR analysis; format: functional, organism-based; details: time 0-2 hrs
# Influenza A virus [14] = test: Antiviral activity against influenza A virus A/WSN/33 (H1N1) in MDCK cells assessed as reduction in M mRNA level preincubated with cells at 24 hrs followed by compound addition and measured at 0 to 2 hrs post infection by RT-qPCR analysis; format: functional, organism-based; details: time 0-2 hrs
# Influenza A virus [15] = test: Antiviral activity against influenza A virus A/WSN/33 (H1N1) in MDCK cells assessed as reduction in NP mRNA level preincubated with cells at 24 hrs followed by compound addition and measured at 0 to 10 hrs post infection by RT-qPCR analysis; format: functional, organism-based; details: time 0-10 hrs
# Influenza A virus [16] = test: Antiviral activity against influenza A virus A/WSN/33 (H1N1) in MDCK cells assessed as reduction in M mRNA level preincubated with cells at 24 hrs followed by compound addition and measured at 0 to 10 hrs post infection by RT-qPCR analysis; format: functional, organism-based; details: time 0-10 hrs
# MDCK [17] = test: Inhibition of Hemagglutinin in Influenza A virus H1N1 assessed as inhibition of virus-induced aggregation of chicken erythrocytes pretreated with virus followed by chicken RBC addition and measured after 30 mins by Hemagglutinin inhibition assay; format: cell-based; details: dose 0-1.94 µM
# Influenza A virus [18] = test: Antiviral activity against Influenza A virus A/WSN/33(H1N1) infected in female BALB/c kunming mouse assessed as improvement in body weight administered intranasally once per day for 7 days and measured daily; format: functional, organism-based; details: dose 6.25-12.5 mg/kg/day, time 7.0 day
# Influenza A virus [19] = test: Antiviral activity against Influenza A virus A/WSN/33(H1N1) infected in female BALB/c kunming mouse assessed as delayed the median time of animal death at 0.125 mg/kg, administered intranasally once per day for 7 days starting from 24 hrs post-viral infection and measured daily; format: functional, organism-based; details: time 7.0 day
# Influenza A virus [20] = test: Antiviral activity against Influenza A virus A/WSN/33(H1N1) infected in female BALB/c kunming mouse assessed as protection of mouse at 0.25 mg/kg, administered intranasally once per day for 7 days starting from 24 hrs post-viral infection and measured daily; format: functional, organism-based; details: time 7.0 day
# Influenza A virus [21] = test: Antiviral activity against Influenza A virus A/WSN/33(H1N1) infected in female BALB/c kunming mouse assessed as reduction in lung index at 6.25 mg/kg/day, administered intranasally once per day for 7 days starting from 24 hrs post-viral infection and measured daily; format: functional; details: time 7 day
# Influenza A virus [22] = test: Antiviral activity against Influenza A virus A/WSN/33(H1N1) infected in female BALB/c kunming mouse assessed as reduction in lung index at 12.5 mg/kg/day, administered intranasally once per day for 7 days starting from 24 hrs post-viral infection and measured daily; format: functional; details: time 7 day
# Influenza A virus [23] = test: Antiviral activity against Influenza A virus A/WSN/33(H1N1) infected in female BALB/c kunming mouse assessed as reduction in severe pneumonia at 12.5 mg/kg/day, administered intranasally once per day for 7 days starting from 24 hrs post-viral infection and measured daily; format: functional, organism-based; details: time 7.0 day
# Influenza A virus [24] = test: Antiviral activity against Influenza A virus A/WSN/33(H1N1) infected in female BALB/c kunming mouse assessed as reduction in immune cell infiltration at 12.5 mg/kg/day, administered intranasally once per day for 7 days starting from 24 hrs post-viral infection and measured daily; format: functional, organism-based; details: time 7.0 day
# [25] = Toxicity in female BALB/c kunming mouse infected with Influenza A virus A/WSN/33(H1N1) assessed as reduction in liver injury at 6.25 to 12.5 mg/kg/day, administered intranasally once per day for 7 days starting from 24 hrs post-viral infection by H and E staining based analysis; format: organism-based; details: in vivo, inhaled_or_intranasal, 168 h, dose 6.25-12.5 mg/kg/day, time 7 day
# [26] = Toxicity in female BALB/c kunming mouse infected with Influenza A virus A/WSN/33(H1N1) assessed as reduction in kidney injury at 6.25 to 12.5 mg/kg/day, administered intranasally once per day for 7 days starting from 24 hrs post-viral infection by H and E staining based analysis; format: organism-based; details: in vivo, inhaled_or_intranasal, 168 h, dose 6.25-12.5 mg/kg/day, time 7 day
structure (smiles),measurement,setting,value
CC1(C)CC[C@]2(C(=O)NCc3cn([C@@H]4O[C@H](CO)[C@@H](O)[C@H](O)[C@H]4O)nn3)CC[C@]3(C)C(=CC[C@@H]4[C@@]5(C)CC[C@H](OC(=O)NCc6cn(Cc7cc(Cn8cc(CNC(=O)O[C@H]9CC[C@]%10(C)[C@H]%11CC=C%12[C@@H]%13CC(C)(C)CC[C@]%13(C(=O)NCc%13cn([C@@H]%14O[C@H](CO)[C@@H](O)[C@H](O)[C@H]%14O)nn%13)CC[C@@]%12(C)[C@]%11(C)CC[C@H]%10C9(C)C)nn8)cc(Cn8cc(CNC(=O)O[C@H]9CC[C@]%10(C)[C@H]%11CC=C%12[C@@H]%13CC(C)(C)CC[C@]%13(C(=O)NCc%13cn([C@@H]%14O[C@H](CO)[C@@H](O)[C@H](O)[C@H]%14O)nn%13)CC[C@@]%12(C)[C@]%11(C)CC[C@H]%10C9(C)C)nn8)c7)nn6)C(C)(C)[C@@H]5CC[C@]43C)[C@@H]2C1,Activity,Influenza A virus [1],Active
same,Activity,MDCK [2],Non-toxic
same,inhibition at 100 µM,Influenza A virus [3],> 75%
same,pIC50,Influenza A virus [4],6.33
same,CC50 at 40 h,[5],> 100 µM
same,selectivity ratio,[6],> 213
same,pIC50,Influenza A virus [7],5.28
same,pIC50,Influenza B virus,5.62
same,Activity,Influenza A virus [8],inactive
same,Activity,Influenza A virus [9],Active; Compound Exerts Antiviral Effect At Early Stage Of Infection
same,Activity,Influenza A virus [10],Active; Compound Exerts Antiviral Effect At Early Stage Of Infection
same,Activity,Influenza A virus [11],Active; Compound Exerts Antiviral Effect At Early Stage Of Infection
same,Activity,Influenza A virus [12],Active; Compound Exerts Antiviral Effect At Early Stage Of Infection
same,Activity,Influenza A virus [13],Active; Compound Exerts Antiviral Effect At Early Stage Of Infection
same,Activity,Influenza A virus [14],Active; Compound Exerts Antiviral Effect At Early Stage Of Infection
same,Activity,Influenza A virus [15],Active; Compound Exerts Antiviral Effect At Early Stage Of Infection
same,Activity,Influenza A virus [16],Active; Compound Exerts Antiviral Effect At Early Stage Of Infection
same,inhibition,MDCK [17],Dose-dependent-effect
same,Activity,Influenza A virus [18],Dose-dependent-effect
same,Activity,Influenza A virus [19],Active
same,Activity,Influenza A virus [20],Active; Protection In 2 Out Of 4 Mouse Was Observed
same,Activity_index,Influenza A virus [21],1.7
same,Activity_index,Influenza A virus [22],1.4
same,Activity,Influenza A virus [23],Active
same,Activity,Influenza A virus [24],Active
same,Activity,[25],Non-toxic
same,Activity,[26],Non-toxic
